This note sets out measurements from US9051325B2, “Bicyclic [5,6] imidazo pyrimodone compounds for use in the treatment of diseases or conditions mediated by Lp-PLA2” (GlaxoSmithKline Intellectual Property Development Limited, priority 2013, dated 2015).

Read-outs that look alike come from different tables or passages of the source.

One assay addresses T1, Lp-PLA2 in human plasma (Homo sapiens, UniProt Q13093).
T1 construct: from tissue; host or cells: pooled human plasma
T1 sequence (Q13093 22-441): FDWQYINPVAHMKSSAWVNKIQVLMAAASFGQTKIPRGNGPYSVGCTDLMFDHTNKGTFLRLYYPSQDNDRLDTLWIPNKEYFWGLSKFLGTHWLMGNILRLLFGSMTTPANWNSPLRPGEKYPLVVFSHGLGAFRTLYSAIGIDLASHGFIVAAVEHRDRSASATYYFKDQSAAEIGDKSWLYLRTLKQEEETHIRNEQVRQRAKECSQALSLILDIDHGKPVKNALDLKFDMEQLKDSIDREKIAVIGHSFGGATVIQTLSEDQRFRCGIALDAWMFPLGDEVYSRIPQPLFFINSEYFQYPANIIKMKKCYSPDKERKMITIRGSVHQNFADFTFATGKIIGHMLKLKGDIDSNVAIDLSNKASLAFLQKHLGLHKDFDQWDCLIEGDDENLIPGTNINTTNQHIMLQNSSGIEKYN
As to the kind of experiment: Lp-PLA2 human plasma assay (Thio-PAF assay). The format is biochemical. The note with it: pooled human plasma; lower bounds; read-out: pIC50 values in the thio-PAF assay (converted). An excerpt: (3) Lipoprotein-Associated Phospholipase A2 (Lp-PLA2) Human Plasma Assay (Also Referred to as “Thio-PAF assay”)
The human plasma assay utilizes a thioester analog of PAF (phosphatidylcholine), where hydrolysis yields to the formation of a phospholipid containing a free thiol group. The amount of thiol is quantitated continuously by reacting with CPM (7-diethylamino-3-(4′-maleimidylphenyl)-4-methylcoumarin), a maleimide which increases in fluoresence after Michael addition of thiols. This assay may detect the activity of Lp-PLA2 in human plasma, as determined by specific inhibition by Lp-PLA2 inhibitors.
The thio-PAF assay was run as a quenched 15 μL assay. Compounds source plate was prepared by making 1:3 (by volume) serial dilution of the compounds into pure DMSO on 384-well microplate. 0.01 μL of compounds on compound source plate were transferred to 384 well Greiner 784076 (black) low-volume plates by ECHO liquid dispenser. 8 μL pooled human plasma, which was previously aliquoted and frozen, was added. Plates were centrifuged for 10 sec at 500 rpm. After 30 minutes preincubation, 2 μL of substrate solution comprising 2.5 mM 2-thio-PAF [from ethanol stock], 32 μM CPM [from a DMSO stock] and 3.2 mM NEM (N-ethylmaleimide) [made fresh daily in DMSO] in assay buffer of 50 mM HEPES, pH 7.4, 150 mM NaCl, 1 mM CHAPS was added to 384 well Greiner 784076 (black) low-volume plates by BRAVO liquid handling station. After 2 mins, reaction was quenched with 5 μL of 5% aqueous trifluoroacetic acid (TFA). Plates were covered to protect from light and incubated for 40 min at room temperature. Plates were read at ex: 380/em: 485 using-Envision microplate reader. PIC50 data, curve and QC analysis were conducted by using XLFit module in Excel.

Assay [1] deals with T2, recombinant human Lp-PLA2 (Homo sapiens, UniProt Q13093).
T2 sequence (Q13093 22-441): T1 sequence (Q13093 22-441)
In words: Recombinant human Lp-PLA2 assay (rhLp-PLA2, PED6 assay). The class given is biochemical. An excerpt:
(1) Recombinant Human Lp-PLA2 Assay (rhLp-PLA2) (Also Referred to as “PED6” Assay)
N-((6-(2,4-dinitrophenyl)amino)-hexanoyl)-2-(4,4-difluoro-5,7-dimethyl-4-bora-3a,4a-diaza-s-indacene-3-pentanoyl)-1-hexadecanoyl-sn-glycero-3-phosphoethanolamine, triethylammonium salt (PED6) is a commercially available fluorescently-labeled phospholipid, which is commercially available from Invitrogene and Molecular Probes. There is a quenching […] and a Bodipy fluorescein (FL) group in the sn2 position. Upon cleavage with Lp-PLA2, the Bodipy FL group is liberated and then may result in an increase in fluorescence. Inhibitors of Lp-PLA2 therefore prevent this cleavage and no fluorescent increase is observed.
The PED6 assay was run as an unquenched 10 μL assay. The source plate containing the compounds to be tested was prepared by making 1:3 (by volume) serial dilution of the compounds within DMSO on 384-well microplate. Then, 0.01 μL of the compounds on compound source plate were transferred into 384 well Greiner 784076 (black) plates using ECHO liquid dispenser. 5 μL of recombinant human Lp-PLA2 enzyme (4 nM (or […]) rhLp-PLA2 in assay buffer of 50 mM HEPES, pH 7.4, 150 mM NaCl, 1 mM CHAPS) was added to each well of the plate. Plates were centrifuged for 10 sec at 500 rpm. After 30 minutes preincubation, 5 μL of substrate ([…] PED6 [from 5 mM DMSO stock] in assay buffer of 50 mM HEPES, pH 7.4, 150 mM NaCl, 1 mM CHAPS) was added to 384 well Greiner 784076 (black) plates. Plates were centrifuged for 10 sec at 500 rpm. The plate was covered to protect it from light and incubated for 20 min at room temperature. The plates were read for fluorescence intensity at ex: 480/em: 540 using ViewLux microplate imager for Envision spectrofluoroimeters pIC50 data, curve and QC analysis was conducted by using XL fit module in Excel.

The mark [2] stands for this setting: lower bounds, read-out: pIC50 values in the PED6 assay (converted).
Where [3] appears, read: read-out: rhLp-PLA2 (PED6 assay) (pIC50) (converted).

In the case of `[2H]C([2H])(Oc1cc2n(c(=O)n1)CC(C)(C)N2C([2H])([2H])[2H])c1cccc(F)c1F` [Example E15, 7-(dideutero(2,3-difluorobenzyl)oxy)-1-trideuteromethyl-2,2-dimethyl-2,3-dihydroimidazo[1,2-c]pyrimidin-5(1H)-one], the IC50 at Lp-PLA2 in human plasma is at most 100 nM; in assay [1] (setting [2]), at most 10 nM.
Taken in the same sequence, the figures for `C[C@H]1Cn2c(cc(OCc3cc(F)c(Oc4ccc(C(F)(F)F)nc4)c(F)c3)nc2=O)N1` [Example E16, (S)-7-((3,5-difluoro-4-((6-(trifluoromethyl)pyridin-3-yl)oxy)benzyl)oxy)-2-methyl-2,3-dihydroimidazo[1,2-c]pyrimidin-5(1H)-one] were at most 100 nM and at most 1 nM.
Taken in the same sequence, the figures for `N#Cc1cc(COc2cc3n(c(=O)n2)CCN3C2CC2)ccc1Oc1cccc(C(F)(F)F)c1` [Example E18, 5-(((1-cyclopropyl-5-oxo-1,2,3,5-tetrahydroimidazo[1,2-c]pyrimidin-7-yl)oxy)methyl)-2-(3-(trifluoromethyl)phenoxy)benzonitrile] were at most 100 nM and at most 1 nM.
Taken in the same sequence, the figures for `C[C@H]1Cn2c(cc(OCc3ccc(Oc4ccc(C#N)c(C(F)(F)F)c4)c(F)c3)nc2=O)N1C` [Example E19, (S)-4-(4-(((1,2-dimethyl-5-oxo-1,2,3,5-tetrahydroimidazo[1,2-c]pyrimidin-7-yl)ox-y)methyl)-2-fluorophenoxy)-2-(trifluoromethyl)benzonitrile] were at most 100 nM and at most 1 nM.
`C[C@H]1Cn2c(cc(OCc3ccc(Oc4cncc(Cl)c4)c(F)c3)nc2=O)N1C` [Example E23, (S)-7-((4-((5-chloropyridin-3-yl)oxy)-3-fluorobenzyl)oxy)-1,2-dimethyl-2,3-dihydroimidazo[1,2-c]pyrimidin-5(1H)-one]: the IC50 at Lp-PLA2 in human plasma was at most 100 nM; in assay [1] (setting [2]), at most 1 nM; in assay [1] (setting [3]) it was 0.158 nM.
For the molecule `CN1c2cc(OCc3cc(F)c(Oc4ccnc(C(F)(F)F)c4)c(F)c3)nc(=O)n2CC1(C)C` [Example E25, 7-((3,5-difluoro-4-((2-(trifluoromethyl)pyridin-4-yl)oxy)benzyl)oxy)-1,2,2-trimethyl-2,3-dihydroimidazo[1,2-c]pyrimidin-(1H)-one], the IC50 was at most 100 nM at Lp-PLA2 in human plasma, at most 1 nM in assay [1] (setting [2]) and 0.0794 nM in assay [1] (setting [3]).
Taken in the same sequence, the figures for `CN1c2cc(OCc3ccc(Oc4cncc(C(F)(F)F)c4)c(F)c3)nc(=O)n2CC1(C)C` [Example E26, 7-((3-fluoro-4-((5-(trifluoromethyl)pyridin-3-yl)oxy)benzyl)oxy)-1,2,2-trimethyl-2,3-dihydroimidazo[1,2-c]pyrimidin-5(1H)-one] were at most 100 nM, at most 1 nM and 0.0158 nM.
Taken in the same sequence, the figures for `CN1c2cc(OCc3ccc(Oc4ccnc(F)c4)c(F)c3)nc(=O)n2CC1(C)C` [Example E29, 7-((3-fluoro-4-((2-fluoropyridin-4-yl)oxy)benzyl)oxy)-1,2,2-trimethyl-2,3-dihydroimidazo[1,2-c]pyrimidin-5(1H)-one] were at most 100 nM, at most 1 nM and 0.2 nM.
Regarding `CN1c2cc(OCc3cc(F)c(Oc4ccnc(Cl)c4)c(F)c3)nc(=O)n2CC1(C)C` [Example E30, 7-((4-((2-chloropyridin-4-yl)oxy)-3,5-difluorobenzyl)oxy)-1,2,2-trimethyl-2,3-dihydroimidazo[1,2-c]pyrimidin-5(1H)-one], the IC50 is at most 100 nM on Lp-PLA2 in human plasma and at most 1 nM in assay [1] (setting [2]).
Take `CC1Cn2c(cc(OCc3ccc(Oc4ccnc(C(F)(F)F)c4)c(F)c3)nc2=O)N1C` (stereo not drawn) [Example E31, 7-((3-fluoro-4-((2-(trifluoromethyl)pyridin-4-yl)oxy)benzyl)oxy)-1,2-dimethyl-2,3-dihydroimidazo[1,2-c]pyrimidin-5(1H)-one]: the IC50 on Lp-PLA2 in human plasma is at most 100 nM; in assay [1] (setting [2]) it was at most 1 nM.
